Measurements taken from article PMC13588620, “Linear antibody epitope prediction using AlphaFold2” (eLife, 2026).
Entries after “also recorded” stand apart in the source; their conditions may differ.

Test system: mBG17 binding to SARS-CoV-2 nucleocapsid protein
Test: Alanine-scan peptide competition ELISA with serial peptide dilution
Design: species or system mouse
Conditions: 4-fold serial dilution of peptide from 40 μg to ~2.5 ng; absorbance at 450 nm; n=3; percentage of binding from no-peptide control

Sequence	competition of mBG17 binding to nucleocapsid protein by alanine mutant peptides, compared with the WT peptide
ADFSKQLQQS [D1A]	no change in competition; also recorded: less disruptive to binding
DDASKQLQQS [F3A]	strong reductions in competition
DDFSKALQQS [Q6A]	minor reductions in competition; also recorded: less disruptive to binding
DDFSKQAQQS [L7A]	strong reductions in competition
DDFSKQLAQS [Q8A]	strong reductions in competition
DDFSKQLQQS [a.a. 401–410]	strong competition
